Here are results for four sequences from patent US20070128217A1 (priority 2003, published 2007).

The test system of experiment [1] is antibodies in sera from SARS patients (sera 1a, 1b, 2, 6, 37, 62, London, SARS-yellow, SARS-green). It is filed as binding, human. More on the design: Binding of serum 6 to linear peptides of protein X1 of SARS-CoV Urbani / Binding of serum 37 to linear peptides of protein X1 of SARS-CoV Urbani / Binding of serum 6 to looped/cyclic peptide (PEPSCAN-ELISA) / Binding of serum 37 to looped/cyclic peptide (PEPSCAN-ELISA) / Binding of serum 37 to looped/cyclic peptides of protein X1 of SARS-CoV Urbani / Binding of serum 6 to linear peptides of protein X2 / Binding of serum 37 to linear peptides of protein X2 / Binding of serum 37 to looped/cyclic peptides of protein X2 of SARS-CoV Urbani / Binding of serum 6 to linear peptides of protein M of SARS-CoV Urbani / Binding of serum 37 to linear peptides of protein M of SARS-CoV Urbani / Binding of serum 6 to looped/cyclic peptides of protein M of SARS-CoV Urbani / Binding of serum 37 to looped/cyclic peptides of protein M of SARS-CoV Urbani / Binding of serum 6 to linear peptides of protein X3 of SARS-CoV Urbani / Binding of serum 37 to linear peptides of protein X3 of SARS-CoV Urbani / Binding of serum 37 to looped/cyclic peptides of protein X3 of SARS-CoV Urbani / Binding of serum 6 to linear peptides of protein X4 of SARS-CoV Urbani / Binding of serum 37 to linear peptides of protein X4 of SARS-CoV Urbani / Binding of serum 37 to looped/cyclic peptides of protein X4 of SARS-CoV Urbani / Binding of serum 6 to linear peptides of protein X5 of SARS-CoV Urbani / Binding of serum 37 to linear peptides of protein X5 of SARS-CoV Urbani / Binding of serum 37 to looped/cyclic peptides of protein X5 of SARS-CoV Urbani / Binding of serum 6 to linear peptides of protein N of SARS-CoV Urbani / Binding of serum 37 to linear peptides of protein N of SARS-CoV Urbani / Binding of serum 6 to linear peptide (PEPSCAN-ELISA) / Binding of serum 1a to looped/cyclic peptides of protein N of SARS-CoV Urbani / Binding of serum 1b to looped/cyclic peptides of protein N of SARS-CoV Urbani / Binding of serum 2 to looped/cyclic peptides of protein N of SARS-CoV Urbani / Binding of serum 6 to looped/cyclic peptides of protein N of SARS-CoV Urbani / Binding of serum 37 to looped/cyclic peptides of protein N of SARS-CoV Urbani / Binding of serum 62 to looped/cyclic peptides of protein N of SARS-CoV Urbani / Binding of serum London to looped/cyclic peptides of protein N of SARS-CoV Urbani / Binding of serum SARS-green to looped/cyclic peptides of protein N of SARS-CoV Urbani: unit not given here.

For experiment [2], the system named is control sera (pooled serum of ten healthy LUMC hospital workers; commercial negative donor pooled serum from the Dutch bloodbank). The experiment is classed as binding, human.
The subject of experiment [3] is rabbit serum obtained by immunizing a rabbit with the SARS-CoV strain Frankfurt 1. It is filed as binding. On the set-up: Binding of a rabbit serum to linear peptides / Binding of a rabbit serum to looped peptides / Rabbit serum linear peptides / Rabbit serum looped peptides / Binding of a rabbit serum to linear peptides of protein N of SARS-CoV Urbani (Rabbit serum linear peptides) / Binding of a rabbit serum to looped/cyclic peptides of protein N of SARS-CoV Urbani (Rabbit serum looped peptides): unit not given here.

For the sequence LKMLHSSSLTSLLKT, in experiment [1], the “Binding of serum 1a to linear peptides of protein X2” value came to 0.6, the “Binding of serum 1a to looped/cyclic peptides of protein X2 of SARS-CoV Urbani” value is recorded as 0.5, the “Binding of serum 1b to linear peptides of protein X2” value came out at 0.5 and the “Binding of serum 1b to looped/cyclic peptides of protein X2 of SARS-CoV Urbani” value was 0.5. In experiment [1], the “Binding of serum 2 to linear peptides of protein X2” value is 0.6, the “Binding of serum 2 to looped/cyclic peptides of protein X2 of SARS-CoV Urbani” value came out at 0.3, the “Binding of serum 6 to linear peptides of protein X2” value came out at 0.4 and the “Binding of serum 6 to looped/cyclic peptides of protein X2 of SARS-CoV Urbani” value was 0.3. For the same sequence, in experiment [1], the “Binding of serum 37 to linear peptides of protein X2” value is 0.6, the “Binding of serum 37 to looped/cyclic peptides of protein X2 of SARS-CoV Urbani” value amounted to 0.4, the “Binding of serum 62 to linear peptides of protein X2” value was 0.6 and the “Binding of serum 62 to looped/cyclic peptides of protein X2 of SARS-CoV Urbani” value amounted to 0.6. In experiment [1], the “Binding of serum London to linear peptides of protein X2” value came to 0.5, the “Binding of serum London to looped/cyclic peptides of protein X2 of SARS-CoV Urbani” value is 0.2, the “Binding of serum SARS-green to linear peptides of protein X2” value came to 0.5 and the “Binding of serum SARS-green to looped/cyclic peptides of protein X2 of SARS-CoV Urbani” value was 0.3. Further, in experiment [1], the “Binding of serum SARS-yellow to linear peptides of protein X2” value is reported as 0.6 and the “Binding of serum SARS-yellow to looped/cyclic peptides of protein X2 of SARS-CoV Urbani” value was 0.2. Also, in experiment [2], the “Binding of Control Serum Blood-Bank to Looped peptides” value is 0.6, the “Binding of Control serum Blood-bank to linear peptides” value is 0.7, the “Binding of Control serum LUMC to linear peptides” value is listed as 0.4 and the “Binding of Control serum LUMC to looped peptides” value came to 0.5. In addition, in experiment [3], the “Binding of a rabbit serum to linear peptides” value was 0.2 and the “Binding of a rabbit serum to looped peptides” value is reported as 0.4.
As to LLACLCKHKKVSTNL, in experiment [1], the “Binding of serum 1a to looped/cyclic peptides of protein X2 of SARS-CoV Urbani” value was 0.4, the “Binding of serum 1b to looped/cyclic peptides of protein X2 of SARS-CoV Urbani” value stood at 0.4, the “Binding of serum 2 to looped/cyclic peptides of protein X2 of SARS-CoV Urbani” value is listed as 0.4 and the “Binding of serum 6 to looped/cyclic peptides of protein X2 of SARS-CoV Urbani” value turned out to be 0.4. In experiment [1], the “Binding of serum 37 to looped/cyclic peptides of protein X2 of SARS-CoV Urbani” value was 0.5, the “Binding of serum 62 to looped/cyclic peptides of protein X2 of SARS-CoV Urbani” value is given as 0.7, the “Binding of serum London to looped/cyclic peptides of protein X2 of SARS-CoV Urbani” value is on record as 0.2 and the “Binding of serum SARS-green to looped/cyclic peptides of protein X2 of SARS-CoV Urbani” value is given as 0.3. In experiment [1], the “Binding of serum SARS-yellow to looped/cyclic peptides of protein X2 of SARS-CoV Urbani” value is 0.4; the “Recognition of the peptide by sera of SARS-CoV infected individuals, and form (linear, looped/cyclic) in which it is recognized” value is on record as “recognized in linear form”. In experiment [2], the “Binding of Control Serum Blood-Bank to Looped peptides” value was 0.5, the “Binding of Control serum Blood-bank to linear peptides” value is on record as 0.8, the “Binding of Control serum LUMC to linear peptides” value amounted to 0.8 and the “Binding of Control serum LUMC to looped peptides” value is 0.7. For the same sequence, in experiment [3], the “Binding of a rabbit serum to linear peptides” value is 0.4 and the “Binding of a rabbit serum to looped peptides” value is 0.4.
On to LLKTHRMCKYTQSTA, for which, in experiment [1], the “Binding of serum 1a to linear peptides of protein X2” value is 0.8, the “Binding of serum 1a to looped/cyclic peptides of protein X2 of SARS-CoV Urbani” value is listed as 0.4, the “Binding of serum 1b to linear peptides of protein X2” value is recorded as 0.5 and the “Binding of serum 1b to looped/cyclic peptides of protein X2 of SARS-CoV Urbani” value turned out to be 0.3. Further, in experiment [1], the “Binding of serum 2 to linear peptides of protein X2” value came out at 0.6, the “Binding of serum 2 to looped/cyclic peptides of protein X2 of SARS-CoV Urbani” value turned out to be 0.2, the “Binding of serum 6 to linear peptides of protein X2” value is listed as 0.6 and the “Binding of serum 6 to looped/cyclic peptides of protein X2 of SARS-CoV Urbani” value was 0.3. In experiment [1], the “Binding of serum 37 to linear peptides of protein X2” value is 0.7, the “Binding of serum 37 to looped/cyclic peptides of protein X2 of SARS-CoV Urbani” value is on record as 0.2, the “Binding of serum 62 to linear peptides of protein X2” value was determined as 0.7 and the “Binding of serum 62 to looped/cyclic peptides of protein X2 of SARS-CoV Urbani” value is 0.4. Also, in experiment [1], the “Binding of serum London to linear peptides of protein X2” value was 0.5, the “Binding of serum London to looped/cyclic peptides of protein X2 of SARS-CoV Urbani” value was found to be 0.2, the “Binding of serum SARS-green to linear peptides of protein X2” value amounted to 0.6 and the “Binding of serum SARS-green to looped/cyclic peptides of protein X2 of SARS-CoV Urbani” value is reported as 0.2. In addition, in experiment [1], the “Binding of serum SARS-yellow to linear peptides of protein X2” value is reported as 0.8 and the “Binding of serum SARS-yellow to looped/cyclic peptides of protein X2 of SARS-CoV Urbani” value is given as 0.2. Further, in experiment [2], the “Binding of Control Serum Blood-Bank to Looped peptides” value is 0.4, the “Binding of Control serum Blood-bank to linear peptides” value is reported as 0.7, the “Binding of Control serum LUMC to linear peptides” value stood at 0.6 and the “Binding of Control serum LUMC to looped peptides” value came out at 0.4. In experiment [3], the “Binding of a rabbit serum to linear peptides” value turned out to be 0.5 and the “Binding of a rabbit serum to looped peptides” value worked out at 0.3.
As to LLKVTAFQHQNSKKT, in experiment [1], the “Binding of serum 1a to linear peptides of protein X2” value is recorded as 0.2, the “Binding of serum 1a to looped/cyclic peptides of protein X2 of SARS-CoV Urbani” value is 0.4, the “Binding of serum 1b to linear peptides of protein X2” value was 0.0 and the “Binding of serum 1b to looped/cyclic peptides of protein X2 of SARS-CoV Urbani” value was 0.3. In experiment [1], the “Binding of serum 2 to linear peptides of protein X2” value was found to be 0.1, the “Binding of serum 2 to looped/cyclic peptides of protein X2 of SARS-CoV Urbani” value is on record as 0.2, the “Binding of serum 6 to linear peptides of protein X2” value is on record as 0.2 and the “Binding of serum 6 to looped/cyclic peptides of protein X2 of SARS-CoV Urbani” value is given as 0.2. In experiment [1], the “Binding of serum 37 to linear peptides of protein X2” value was found to be 0.5, the “Binding of serum 37 to looped/cyclic peptides of protein X2 of SARS-CoV Urbani” value worked out at 0.3, the “Binding of serum 62 to linear peptides of protein X2” value is 0.1 and the “Binding of serum 62 to looped/cyclic peptides of protein X2 of SARS-CoV Urbani” value is listed as 0.4. For the same sequence, in experiment [1], the “Binding of serum London to linear peptides of protein X2” value was 0.2, the “Binding of serum London to looped/cyclic peptides of protein X2 of SARS-CoV Urbani” value stood at 0.2, the “Binding of serum SARS-green to linear peptides of protein X2” value was 0.1 and the “Binding of serum SARS-green to looped/cyclic peptides of protein X2 of SARS-CoV Urbani” value is given as 0.3. Besides, in experiment [1], the “Binding of serum SARS-yellow to linear peptides of protein X2” value is 0.1 and the “Binding of serum SARS-yellow to looped/cyclic peptides of protein X2 of SARS-CoV Urbani” value is given as 0.3. Also, in experiment [2], the “Binding of Control Serum Blood-Bank to Looped peptides” value was 0.4, the “Binding of Control serum Blood-bank to linear peptides” value was determined as 0.3, the “Binding of Control serum LUMC to linear peptides” value was determined as 0.3 and the “Binding of Control serum LUMC to looped peptides” value came out at 0.5. In addition, in experiment [3], the “Binding of a rabbit serum to linear peptides” value was determined as 0.6 and the “Binding of a rabbit serum to looped peptides” value came to 0.3.
